# What was measured:
# B. trispora [1] = assay: Effect on beta-carotene purity profile with B. trispora (percentage of total carotenoids, HPLC); format: cell-based, Blakeslea trispora; settings: for 7,8-DH [%] of total carotenoids / BC [%] of total carotenoids: average of two measurements
# Procedure: (§1) Shake flask seed medium MIBLT-1. 23.5 g/l corn meal, 23 g/l soybean meal, 10 g/l glucose, 0.5 g/l KH2PO4 are mixed, the medium pH is adjusted to 6.3, homogenized with an Ultra-Turrax® blender (Ika) for 8 minutes at 13500 rpm, and heated at 70° C. for 45 minutes prior to autoclaving.
# (§2) Shake flask production medium MF-BLT-22. 17.5 g/l corn meal, 40 g/l soya flour, 10 g/l soy lecithin, 0.5 g/l KH2PO4, 109 g/l soy oil, optionally 0.28 g/l isoniazid, optionally curcumin (1.0, 0.3, 0.1, 0.03 or 0.01% w/v), are mixed, the medium pH is adjusted to 6.3, is homogenized with an Ultra-Turrax® blender (Ika) for 8 minutes at 13500 rpm, and heated at 70° C. for 45 minutes prior to autoclaving.
# (§3) Shake Flask Process. An Erlenmeyer flask (250 or 300 mL volume) containing 30 ml of seed medium (MIBLT-1) is inoculated with spores of B. trispora (−) strain to a concentration of 4.5×10^3 spores/ml. A second Erlenmeyer flask containing 30 ml of MIBLT-1 is inoculated with spores of B. trispora (+) strain to a concentration of 1.5×10^3 spores/ml. The flasks are incubated (220 rpm, 5 cm displacement, 27° C., protected from light) for 48 hr. Three ml of (+) strain culture are added to 30 ml of (−) strain culture, and the mated strains mixture is incubated (220 rpm, 5 cm throw, 27° C., protected from light) for 45 minutes. Erlenmeyer flasks (250 or 300 mL volume) containing 20 ml of production medium (MF-BLT-22) are inoculated with 2 ml of the mated strains mixture. Flasks are incubated (250 rpm, 5 cm displacement, 25° C., protected from light). At 48 hours after inoculation of the 20 mL production cultures, 40 μL of a 50% v/v sterile beta-ionone solution in absolute ethanol is added to each flask. Cultures are returned to the incubator for a total of 7 days post inoculation.
# (§4) Sample preparation for HPLC-analysis. Each flask culture is transferred to a 50 mL conical tube and homogenized with an Ultra-Turrax® blender (Ika) for 2 minutes at 24000 rpm. Weigh out one gram of sample into a 100 ml volumetric flask. Eighty milliliters of Solution A are added to the flask and the flask is sonicated for 5 min. The volume is brought to 100 ml with solution A, and the solution is stirred for 60 minutes and allowed to settle for another hour.
# (§5) HPLC-analysis. Samples from the above extract (10 μl) are injected as is on a calibrated HPLC using a Suplex-PKB-100 column (Supelco), with a flow rate of 0.6 ml/min, and column temperature of 30° C. The mobile phase contains (per L) 455 ml acetonitrile, 500 ml methanol, 0.2 ml N-ethyldiisopropylamine, 25 ml aqueous solution of 0.2% ammonium acetate, and 50 mg BHT (dissolved in 20 ml of 2-propanol). Compounds are identified and quantified by UV at 448 nm.
# Fermentations and analysis were performed as described in Ex. 2, including addition of various concentrations of curcumin.
# B. trispora [2] = assay: Effect on beta-carotene production with B. trispora in shake flask fermentation (HPLC); format: cell-based, Blakeslea trispora; settings: for BC: average of two measurements; for Increase BC: compared to control with no curcumin/isoniazid
# Procedure: as §1, §2, §3, §4, §5
# Concentration of beta-carotene was measured as described in Example 1, with comparison of different concentrations of curcumin.
# [3] = curcumin 0.3% w/v, listed as Curcumin
structure (smiles),measurement,setting,value
COc1cc(/C=C/C(=O)CC(=O)/C=C/c2ccc(O)c(OC)c2)ccc1O [curcumin],increase of percentage of beta-carotene based on total carotenoids,"B. trispora [1]; 0.3% curcumin, compared to fermentations without curcumin",about 10%
same,"percentage of 7,8-dihydro-beta-carotene based on total carotenoids",B. trispora [1]; about 0.3 to 1.0% curcumin,about 3%
same,"reduction of 7,8-dihydro-beta-carotene based on total carotenoids","B. trispora [1]; about 1.0% (w/v) curcumin, compared to no curcumin",about 68%
same,"reduction of 7,8-dihydro-beta-carotene based on total carotenoids","B. trispora [1]; addition of curcumin (amount not specified), compared to fermentation without curcumin",at least 28%
same,"7,8-DH [%] of total carotenoids",B. trispora [1]; curcumin 0.01% w/v,9.98%
same,BC [%] of total carotenoids,B. trispora [1]; curcumin 0.01% w/v,81.19%
same,"7,8-DH [%] of total carotenoids",B. trispora [1]; curcumin 0.03% w/v,6.99%
same,BC [%] of total carotenoids,B. trispora [1]; curcumin 0.03% w/v,85.59%
same,"7,8-DH [%] of total carotenoids",B. trispora [1]; curcumin 0.1% w/v,5.79%
same,BC [%] of total carotenoids,B. trispora [1]; curcumin 0.1% w/v,86.75%
same,"7,8-DH [%] of total carotenoids",B. trispora [1]; curcumin 0.3% w/v,3.35%
same,BC [%] of total carotenoids,B. trispora [1]; curcumin 0.3% w/v,about 91%
same,BC [%] of total carotenoids,B. trispora [1]; [3],91.44%
same,"7,8-DH [%] of total carotenoids",B. trispora [1]; curcumin 1.0% w/v,3.12%
same,BC [%] of total carotenoids,B. trispora [1]; curcumin 1.0% w/v,92.17%
same,BC,"B. trispora [2]; curcumin 0.01% w/v in production medium, no isoniazid",1.74 g/L
same,Increase BC,B. trispora [2]; curcumin 0.01% w/v,12%
same,BC,"B. trispora [2]; curcumin 0.03% w/v in production medium, no isoniazid",2.45 g/L
same,Increase BC,B. trispora [2]; curcumin 0.03% w/v,58%
same,BC,"B. trispora [2]; curcumin 0.1% w/v in production medium, no isoniazid",3.48 g/L
same,Increase BC,B. trispora [2]; curcumin 0.1% w/v,125%
same,BC,"B. trispora [2]; curcumin 0.3% w/v in production medium, no isoniazid",4.99 g/L
same,Increase BC,B. trispora [2]; curcumin 0.3% w/v,more than 220%
same,Increase BC,B. trispora [2]; [3],222%
same,BC,"B. trispora [2]; curcumin 1.0% w/v in production medium, no isoniazid",4.55 g/L
same,Increase BC,B. trispora [2]; curcumin 1.0% w/v,194%
"NNC(=O)c1ccncc1 [isoniazid, reference compound]",increase in the percentage of beta-carotene based on total carotenoids,"B. trispora [1]; addition of 0.28 g/l isoniazid, compared to no isoniazid",less than 10%
same,"percentage of 7,8-dihydro-beta-carotene based on total carotenoids",B. trispora [1]; addition of isoniazid (0.28 g/l),28.1%
same,BC,"B. trispora [2]; isoniazid 0.28 g/l in production medium, no curcumin",4.17 g/L
